From patent US3946018A, “1,4-Dihydro-3 (2H)-isoquinolinone derivatives” (priority 1973, dated 1976)
Structures can show the parent of a compound that is named as a salt. Where two headings read alike, the source gives them in different places.

Tests used:
white mice [1] = test: inhibition of pentamethylenetetrazole-provoked spasm; assay type: in vivo, white mice of both sexes; conditions: Mus musculus, read-out: ED50 pentamethylenetetrazole
Procedure: The inhibiting effect on pentamethylenetetrazoleprovoked spasm was tested on groups each consisting of 12 individually caged, randomized mice, by the method of Orloff (Proc. Soc. Exp. Biol. Med. N.Y., 70, 254 /1949/). The pentamethylenetetrazole spasm threshold was determined by the slow (0.05 ml./10 sec.) intravenous administration of a 0.5 % pentamethylenetetrazole solution, and the influence of the compounds on the spasm threshold was examined. In every case, the tonic extension of the hind limbs was regarded as spasm.

[2] = acute oral toxicity (LD50) in mice; conditions: mouse, in vivo
Procedure: (§1) The LD5o values of the compounds were determined on groups each consisting of 8 mice. The results were evaluated according to the method of Lichtfield and Wilcoxon (J. Pharmacol. exp. Therap. 96, 99 / 1949/).

in vivo = conditions: mouse, po
Procedure: (§2) The pharmacological properties of the new compounds were tested on white mice of both sexes, weighing 16 to 24 g. The new compounds were administered orally through a metal stomach tube, in the form of a 5 per cent suspension in a medium containing Tween 80 as suspending agent.
The paralyzing effect of the compounds was tested on groups each consisting of 8 mice, by the rotarod test. The ED5o rotarod value corresponds to the dosis, which, one hour after the administration, causes 50 per cent of the test animals to fall down from the rotarod within 3 minutes. The neurotoxic activity was evaluated according to the method of Lichtfield and Wilcoxon.
(§3) For comparison various known and widely used pharmacons, namely phenobarbital (5-ethyl-5-phenylbarbituric acid), phenytoin (5,5-diphenylhydantoine) and trimethadion (3,5,5-trimethyl-2,4-oxazolidine-dione) were also tested under the same conditions.

white mice [3] = test: Maximum Electroshock Seizure Test (electroshock-inhibiting effect); assay type: in vivo, white mice of both sexes; conditions: for Protective Index: ED50 rotarod divided by ED50 ES; for ED50: Mus musculus, read-out: ED50 ES
Procedure: as §2
The electroshock-inhibiting effect of the compounds was examined on groups each consisting of 10, individually caged mice. The anticonvulsive activity was tested by the "Maximum Electroshock Seizure Test" of Swinyard, et al. (Epilepsia 10, 107 /1969/), and the inhibition of the tonic extension of the hind limbs was evaluated. […] The results were evaluated according to the method of Lichtfield and Wilcoxon. The electroshock was provoked using corneal electrodes, under the following parameters: 50 Hz, 0.3 sec. 3 msec; the current intensity varied between 28 and 34 mA (a current intensity was maintained that was sufficient to provoke spasm in each of the 10 animals).
The activities of the compounds with protecting effect against electroshock were compared by the so-called protective index, which was calculated by dividing the individual ED5o rotarod values with the corresponding ED5o ES values. The greater this ratio, the more remote the dosis protecting against electroshock is from the dosis causing muscle relaxation.
as §3

white mice [4] = test: acute oral toxicity (LD50) in mice; conditions: mouse, in vivo, po
Procedure: as §1

[5] = oral, mice, 3 h., 0.5 % pentamethylenetetrazole slow i.v., tonic extension of the hind limbs regarded as spasm
[6] = oral, mice, 3 h., inhibition of tonic extension of the hind limbs, protection of 50 % of animals

SMILES	ED50 (white mice [1]; [5]) [mg/kg]	LD50 ([2]; oral, mice, read-out: LD50) [mg/kg]	TD50 (in vivo) [mg/kg]	Protective Index (white mice [3])	ED50 (white mice [3]; [6]) [mg/kg]	ED50 (white mice [1]; po, 3 h) [mg/kg]	TD50 (in vivo; in vivo) [mg/kg]	ED50 (white mice [3]; po, 3 h) [mg/kg]	LD50 ([2]; po) [mg/kg]	LD50 (white mice [4]) [mg/kg]
CN1C(=O)OC(C)(C)C1=O [3,5,5-trimethyl-2,4-oxazolidine-dione, reference compound]	62	1750	340	0.77	440					
O=C1NC(=O)C(c2ccccc2)(c2ccccc2)N1 [5,5-diphenyl-hidantoine, 5,5-diphenylhydantoine, reference compound]	25	300	10	1.0	10					
CCC1(c2ccccc2)C(=O)NC(=O)NC1=O [5-ethyl-5-phenyl-barbituric acid, 5-ethyl-5-phenylbarbituric acid, reference compound]		180		2.5		15	38	15		
CCCNCC(=O)Nc1ccc(C2NC(=O)Cc3ccccc32)cc1 (centres unmarked) [Example 5, 1,4-Dihydro-1-(4'-/propylaminoacetyl/-amino-phenyl)-3(2H)-isoquinolinone]	50		490	24	21				~2000	
CCCNCC(=O)Nc1ccc(C2NC(=O)C(C)(C)c3ccccc32)cc1 (centres unmarked) [Example 6, 1,4-Dihydro-4,4-dimethyl-1-(4'-/propylaminoacetyl/-amino-phenyl)3-(2H)-isoquinolinone]	100		435	13.6	32				1600	
CCCNCC(=O)Nc1ccc(C2NC(=O)C(C)c3ccccc32)cc1 (centres unmarked) [Example 7, 1,4-Dihydro-4-methyl-1-(4'-/propylaminoacetyl/-aminophenyl)-3(2H)-isoquinolinone]	50		340	15.4	22					> 1600
CCCNCC(=O)Nc1ccc(C2NC(=O)C(C(C)C)c3ccccc32)cc1 (centres unmarked) [Example 8, 1,4-Dihydro-4-isopropyl-1-(4'-/propylaminoacetyl/-amino-phenyl)-3(2H)-isoquinolinone]	50		~50	~2.5	~20				600 to 800	
CCNCC(=O)Nc1ccc(C2NC(=O)Cc3ccccc32)cc1 (centres unmarked) [Example 9, 1,4-Dihydro-1-(4'-/ethylaminoacetyl/-amino-phenyl)-3(2H)-isoquinolinone]	50		520	51	10.2					> 1600
CCNCC(=O)Nc1ccc(C2NC(=O)C(C)(C)c3ccccc32)cc1 (centres unmarked) [Example 10, 1,4-Dihydro-1-(4'-/ethylaminoacetyl/-amino-phenyl)-4,4-dimethyl-3(2H)-isoquinolinone]	50		760	~2	> 300					> 2000
CNCC(=O)Nc1ccc(C2NC(=O)Cc3ccccc32)cc1 (centres unmarked) [Example 11, 1,4-Dihdryo-1-(4'-/methylaminoacetyl/-amino-phenyl)-3(2H)-isoquinolinone]	50		270	~12	22				~600	
CC(C)NCC(=O)Nc1ccc(C2NC(=O)Cc3ccccc32)cc1 (centres unmarked) [Example 12, 1,4-Dihydro-1-(4'-/isopropylaminoacetyl/-aminophenyl)-3(2H)-isoquinolinone]	100		270	26	10.5					> 1000
CNCC(=O)Nc1ccc(C2NC(=O)C(C)(C)c3ccccc32)cc1 (centres unmarked) [Example 13, 1,4-Dihydro-4,4-dimethyl-1-(4'-/methylaminoacetyl/-amino-phenyl)-3(2H)-isoquinolinone maleate]			~800	~32	25					> 2000
CC(C)NCC(=O)Nc1ccc(C2NC(=O)C(C)(C)c3ccccc32)cc1 (centres unmarked) [Example 14, 1,4-Dihydro-4,4-dimethyl-1-(4'-/isopropylaminoacetyl/-amino-phenyl)-3(2H)-isoqinolinone]			~1600	~59	27					> 2000
CCCCNCC(=O)Nc1ccc(C2NC(=O)C(C)(C)c3ccccc32)cc1 (centres unmarked) [Example 15, 1,4-Dihydro-1-(4'-/butylaminoacetyl/-amino-phenyl)-4,4-dimethyl-3(2H)-isoquinolinone]			~300	~10	29				> 1000	
CCN(CC)CC(=O)Nc1ccc(C2NC(=O)C(C)(C)c3ccccc32)cc1 (centres unmarked) [Example 16, 1,4-Dihydro-1-(4'-/N,N-diethylaminoacetyl/-amino-phenyl)-4,4-dimethyl-3(2H)-isoquinolinone]			~1300	~15	~88				~1600	
